Two compounds from patent US20070161655A1, “Fungicidal mixtures” (BASF Aktiengesellschaft, priority 2004, published 2007) can be followed below.

This experiment deals with Corticium sasakii. Description: Activity against sheath blight on rice caused by Corticium sasakii (protective spray, rice plants cultivar Tai-Nong 67). Type of experiment: in vivo. To be noted: individual active compound, evaluated after 11 days, untreated control 85% infection. How it is done: The active compounds, separately or jointly, were prepared as a stock solution comprising 0.25% by weight of active compound in acetone or DMSO. 1% by weight of the emulsifier Uniperol® EL (wetting agent having emulsifying and dispersing action based on ethoxylated alkylphenols) was added to this solution, and the mixture was appropriately diluted with water to the desired concentration.
Pots of rice plants of the cultivar “Tai-Nong 67” were sprayed to runoff point with an aqueous suspension having the concentration of active compound stated below. The next day, oat grains infected with Corticium sasakii were planted in the pots (in each case 5 grains per pot). The plants were then placed in a chamber at 26° C. and maximum atmospheric humidity. After 11 days, the sheath blight on the untreated but infected control plants had developed to such an extent that the infection could be determined visually in %.
Evaluation is carried out by determining the infected leaf areas in percent. These percentages were converted into efficacies.
The efficacy (E) is calculated as follows using Abbot's formula: E=(1−α/β)·100 • α corresponds to the fungal infection of the treated plants in % and • β corresponds to the fungal infection of the untreated (control) plants in %
An efficacy of 0 means that the infection level of the treated plants corresponds to that of the untreated control plants; an efficacy of 100 means that the treated plants are not infected.
The expected efficacies of the mixtures of active compounds are determined using Colby's formula [R. S. Colby, Weeds, 15, 20-22 (1967)] and are compared with the observed efficacies.
Colby's formula: E=x+y−x·y/100 • expected efficacy, expressed in % of the untreated control, when using the mixture of the active compounds A and B at the concentrations a and b • x efficacy, expressed in % of the untreated control, when using the active compound A at the concentration a
y efficacy, expressed in % of the untreated control, when using the active compound B at the concentration b

As to `CC1CCN(c2c(-c3c(F)cc(F)cc3F)c(Cl)nc3ncnn23)CC1` [I, 5-chloro-7-(4-methylpiperidin-1-yl)-6-(2,4,6-trifluorophenyl)-[1,2,4]triazolo[1,5-a]pyrimidine], the “Efficacy in % of the untreated control” value (4 ppm in the spray liquor) is given as 30% and the “Efficacy in % of the untreated control” value (16 ppm in the spray liquor) was determined as 65%.

Regarding `CN(C)S(=O)(=O)N(SC(F)(Cl)Cl)c1ccccc1` [II (dichlofluanid), N-dichlorofluoromethylthio-N′,N′-dimethyl-N-phenylsulfonamide], the “Efficacy in % of the untreated control” value is, setting by setting: (4 ppm in the spray liquor) 0%; (16 ppm in the spray liquor) 0%.
